In ChEMBL document CHEMBL1201862, “PubChem BioAssay data set” (2004):
The source made the active and inactive calls.

Columns and labels:
[1] = molecular target: T1, Polyadenylate-binding protein 1 (Homo sapiens, UniProt P11940); assay: MLLE binding blockers, Cy5 peptide tracer – biochemical, fluorescence polarization, Cy5-PAM2 peptide, secondary, miRNA deadenylation inhibitor project, dose response (AID 602260); assay type: functional; conditions: read-out: IC50_Mean
[2] = molecular target: T1, Polyadenylate-binding protein 1; assay: MLLE domain peptide-binding blockers, IC50 – biochemical, fluorescence polarization, FITC-PAM2 peptide, dose response (AID 602259); assay type: functional; conditions: read-out: IC50_Mean
Large T antigen = Large T antigen (Simian virus 40, UniProt P03070); assay type: functional, Betapolyomavirus macacae;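 note: Confirmatory-stage PubChem screen for compounds that inhibit SV40 T antigen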
Sequence of Large T antigen (P03070 whole entry): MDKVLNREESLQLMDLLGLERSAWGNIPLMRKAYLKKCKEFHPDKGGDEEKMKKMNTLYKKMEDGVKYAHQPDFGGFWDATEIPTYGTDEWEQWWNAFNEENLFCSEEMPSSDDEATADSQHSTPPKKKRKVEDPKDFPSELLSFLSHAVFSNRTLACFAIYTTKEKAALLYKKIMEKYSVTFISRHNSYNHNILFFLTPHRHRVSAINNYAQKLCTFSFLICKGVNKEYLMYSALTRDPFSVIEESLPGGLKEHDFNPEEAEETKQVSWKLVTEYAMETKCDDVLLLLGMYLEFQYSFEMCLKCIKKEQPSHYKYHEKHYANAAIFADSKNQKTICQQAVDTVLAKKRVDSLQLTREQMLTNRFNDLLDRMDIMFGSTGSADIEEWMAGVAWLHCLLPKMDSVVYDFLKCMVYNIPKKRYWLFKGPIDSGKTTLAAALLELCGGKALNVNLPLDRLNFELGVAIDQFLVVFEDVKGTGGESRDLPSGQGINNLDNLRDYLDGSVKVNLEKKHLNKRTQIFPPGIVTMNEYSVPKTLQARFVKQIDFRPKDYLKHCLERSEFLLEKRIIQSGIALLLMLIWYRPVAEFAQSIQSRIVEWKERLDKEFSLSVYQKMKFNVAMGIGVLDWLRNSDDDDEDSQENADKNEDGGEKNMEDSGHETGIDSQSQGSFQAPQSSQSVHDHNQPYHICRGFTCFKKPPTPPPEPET

[3] = molecular target: T2, Heat shock factor protein 1 (Mus musculus, UniProt P38532); assay: enhancement of HSF1-driven luciferase signal – cell-based, NIH3T3, luminescence, dose retest, confirmation (AID 435004); assay type: functional;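 note: stress induced by proteasome inhibitor MG132 added 30 min after compound; luciferase reporter driven by HSF1 response element in NIH3T3 cells; actives raise luminescence as potentiators of the MG132 stress response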
T2 sequence (P38532 whole entry): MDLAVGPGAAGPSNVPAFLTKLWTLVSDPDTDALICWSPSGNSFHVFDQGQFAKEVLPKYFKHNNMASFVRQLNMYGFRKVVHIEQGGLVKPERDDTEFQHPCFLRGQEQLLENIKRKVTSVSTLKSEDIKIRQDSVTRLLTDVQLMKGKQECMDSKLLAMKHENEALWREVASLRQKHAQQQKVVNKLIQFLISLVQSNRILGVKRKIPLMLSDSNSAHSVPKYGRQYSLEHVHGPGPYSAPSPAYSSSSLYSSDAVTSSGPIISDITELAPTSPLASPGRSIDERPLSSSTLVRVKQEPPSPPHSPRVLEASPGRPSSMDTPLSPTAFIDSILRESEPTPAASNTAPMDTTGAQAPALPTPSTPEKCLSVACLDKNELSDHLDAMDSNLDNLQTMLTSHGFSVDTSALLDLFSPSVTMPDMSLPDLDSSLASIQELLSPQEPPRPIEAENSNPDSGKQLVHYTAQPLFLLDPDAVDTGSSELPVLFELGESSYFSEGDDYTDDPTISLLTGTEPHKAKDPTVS

[4] = NIH-3T3 fibroblast cytotoxicity, dose response, cytotoxicity control, cell-based, fluorescence, Alamar Blue, secondary assay (AID 2327); assay type: functional;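 note: NIH-3T3 mouse fibroblasts cultured with fluconazole at 8 µg/mL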
[5] = fluconazole-exposed Candida albicans growth modulators – fluorescence, retest, confirmation (AID 2467); assay type: functional, cell-based
[6] = molecular target: T3, Rac GTPase-activating protein 1 (Homo sapiens, UniProt Q9H0H5); assay: blockers of MgcRacGAP-driven Rac1 GTP hydrolysis – biochemical, ADP Hunter fluorescence, primary and confirmatory, confirmation (AID 624330); assay type: functional
T3 sequence (Q9H0H5 whole entry): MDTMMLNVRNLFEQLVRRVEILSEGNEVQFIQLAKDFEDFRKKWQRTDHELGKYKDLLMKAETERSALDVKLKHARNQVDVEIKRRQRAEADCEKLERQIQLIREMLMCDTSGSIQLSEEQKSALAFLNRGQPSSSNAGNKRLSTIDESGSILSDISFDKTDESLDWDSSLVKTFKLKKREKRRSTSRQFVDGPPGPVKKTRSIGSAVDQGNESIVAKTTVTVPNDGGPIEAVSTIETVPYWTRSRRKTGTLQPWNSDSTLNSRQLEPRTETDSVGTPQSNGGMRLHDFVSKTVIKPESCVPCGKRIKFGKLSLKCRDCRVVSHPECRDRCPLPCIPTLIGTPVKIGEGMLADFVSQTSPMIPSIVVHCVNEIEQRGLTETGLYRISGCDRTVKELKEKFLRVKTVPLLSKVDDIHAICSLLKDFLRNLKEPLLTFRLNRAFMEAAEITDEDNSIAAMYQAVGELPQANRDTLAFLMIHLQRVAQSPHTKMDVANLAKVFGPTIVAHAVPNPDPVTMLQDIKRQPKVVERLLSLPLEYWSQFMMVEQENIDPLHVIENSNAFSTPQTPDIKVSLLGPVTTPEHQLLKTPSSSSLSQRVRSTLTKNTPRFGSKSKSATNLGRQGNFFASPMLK

[7] = viability of uninfected HEp-2 cells – cell-based, HTS, cytotoxicity control for RSV inhibitor project, dose response (AID 2410); assay type: functional; conditions: human respiratory syncytial virus
INS1 = assay: INS-1E survival protection against cytokine death – cell-based, luminescence, retest, dose response (AID 449756); assay type: functional; conditions: Rattus norvegicus, INS1;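 note: cell death triggered by IL-1 beta plus TNF-alpha plus IFN-gamma mixture; protective hits raise ATP signal compared with cytokine alone wells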
cells [8] = assay type: functional, cell-based
cells [9] = assay type: functional, cell-based; remark: listed apart in the source
[10] = molecular target: T4, RNA-binding protein pos-1 (Caenorhabditis elegans, UniProt G5EF15); assay: disruptors of C. elegans POS-1 RNA interaction – biochemical, fluorescence polarization, dose response (AID 1964);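 note: purified POS-1 fused to maltose binding protein made in E. coli; potency of compounds blocking POS-1 binding to fluorescent RNA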
T4 sequence (G5EF15 whole entry): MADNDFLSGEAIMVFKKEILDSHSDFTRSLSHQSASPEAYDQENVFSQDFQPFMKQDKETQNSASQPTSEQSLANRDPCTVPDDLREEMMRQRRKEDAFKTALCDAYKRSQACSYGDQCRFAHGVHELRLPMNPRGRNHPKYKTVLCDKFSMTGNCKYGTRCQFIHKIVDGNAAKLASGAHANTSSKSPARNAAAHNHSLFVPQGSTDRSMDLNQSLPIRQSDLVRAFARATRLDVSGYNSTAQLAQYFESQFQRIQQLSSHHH

[11] = molecular target: T5, Zinc finger protein mex-5 (Caenorhabditis elegans, UniProt Q9XUB2); assay: potency of MEX-5 RNA-binding blockers – biochemical, C. elegans, fluorescence polarization, dose response (AID 1960)
T5 sequence (Q9XUB2 whole entry): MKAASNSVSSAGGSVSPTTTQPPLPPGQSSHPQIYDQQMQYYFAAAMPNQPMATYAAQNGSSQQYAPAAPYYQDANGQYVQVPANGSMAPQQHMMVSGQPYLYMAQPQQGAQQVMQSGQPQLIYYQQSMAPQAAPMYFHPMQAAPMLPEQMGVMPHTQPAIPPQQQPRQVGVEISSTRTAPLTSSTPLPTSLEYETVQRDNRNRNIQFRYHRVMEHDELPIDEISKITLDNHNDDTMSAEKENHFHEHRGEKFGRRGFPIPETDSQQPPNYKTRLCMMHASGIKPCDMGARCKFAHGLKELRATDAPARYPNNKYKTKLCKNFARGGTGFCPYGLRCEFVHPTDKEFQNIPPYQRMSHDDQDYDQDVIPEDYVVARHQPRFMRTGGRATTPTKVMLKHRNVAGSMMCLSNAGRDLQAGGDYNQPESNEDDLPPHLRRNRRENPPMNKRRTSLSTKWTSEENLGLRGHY

T1 sequence (P11940 whole entry, the tested form may be a part): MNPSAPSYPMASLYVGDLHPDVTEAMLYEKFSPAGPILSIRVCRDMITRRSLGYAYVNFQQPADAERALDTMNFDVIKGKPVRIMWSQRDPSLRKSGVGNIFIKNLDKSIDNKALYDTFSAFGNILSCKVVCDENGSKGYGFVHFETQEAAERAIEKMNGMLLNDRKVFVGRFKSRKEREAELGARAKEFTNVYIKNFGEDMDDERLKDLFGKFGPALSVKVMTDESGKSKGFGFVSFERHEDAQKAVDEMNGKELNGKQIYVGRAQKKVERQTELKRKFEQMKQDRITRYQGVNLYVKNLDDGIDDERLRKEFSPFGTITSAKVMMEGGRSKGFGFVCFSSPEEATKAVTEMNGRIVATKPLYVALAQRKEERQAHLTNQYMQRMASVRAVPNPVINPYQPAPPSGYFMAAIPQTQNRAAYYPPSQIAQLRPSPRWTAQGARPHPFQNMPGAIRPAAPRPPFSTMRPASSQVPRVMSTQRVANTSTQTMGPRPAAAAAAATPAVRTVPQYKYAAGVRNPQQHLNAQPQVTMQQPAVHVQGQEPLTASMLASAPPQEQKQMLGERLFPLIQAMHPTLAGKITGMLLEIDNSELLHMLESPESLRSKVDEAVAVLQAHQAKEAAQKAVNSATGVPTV

CCOc1ccc2c(c1)n([O-])c1c([n+]2=O)CCCC1
IC50 [1]: > 66 µM (inactive) | IC50 [2]: > 66 µM (inactive)

Cc1c(C(=O)Oc2ccc(-c3cnc4ccccc4n3)cc2)cccc1[N+](=O)[O-]
IC50 (Large T antigen): 58.2 µM (active)

COc1cc(C2Nc3ccc4ncccc4c3C3=C2C(=O)CCC3)cc(OC)c1OC (stereo unspecified)
EC50 [3]: 29.3 µM (active)

CCN(CC)S(=O)(=O)c1ccc(N2CCOCC2)c(NC(=O)c2cc3ccccc3oc2=O)c1
EC50 [3]: > 260 µM (inactive)

O=S1(=O)N=C(Nc2ccc(N3CCOCC3)cc2)c2ccccc21
EC50 [4]: > 160 µM (inactive) | EC50 [5]: > 38 µM (not active)

CN(C)c1ccc(-c2nc3cnccn3c2Nc2ccc3c(c2)OCCO3)cc1
IC50 (Large T antigen): 12 µM (active)

Cc1ccc(CNC(=O)CSc2nccn(-c3ccc(C)c(F)c3)c2=O)cc1
IC50 [1]: > 66 µM (inactive) | IC50 [2]: > 66 µM (inactive)

CCN1C(=O)/C(=C2\Sc3ccccc3N2CC)OC1=S
IC50 [1]: > 66 µM (inactive) | IC50 [2]: > 66 µM (inactive)

Cc1cs/c(=N\N=C\c2ccc(O)cc2)n1Cc1ccco1
IC50 (Large T antigen): 25.5 µM (active) | IC50 [6]: 28.8 µM (active)

CC1CC2(CCCCC2)Nc2ccc3ccccc3c21 (stereo unspecified)
EC50 [3]: > 260 µM (inactive)

CNc1nc(-c2ccccc2)cc(C)c1S(C)(=O)=O
EC50 [3]: > 260 µM (inactive)

Cc1oc(-c2ccoc2)nc1CN(CC1CCC(=O)N1)C(C)C (stereo unspecified)
EC50 [3]: > 260 µM (inactive)

COC(=O)/C=C1\SC(NC(=O)c2ccc(C)cc2)=NC1=O
IC50 [1]: > 66 µM (inactive) | IC50 [2]: > 66 µM (inactive)

S=C1N=C(c2ccccc2)NCN1c1ccc(Br)cc1
EC50 [3]: 236 µM (active)

O=C(Nc1ccc(N=Nc2ccccc2)c(NC(=O)C2CCCO2)c1)C1CCCO1 (stereo unspecified)
EC50 [4]: > 160 µM (inactive) | EC50 [5]: > 38 µM (not active)

COc1ccc2ccc(O)c(CN3CC=C(c4ccccc4)CC3)c2c1
EC50 [3]: 34.6 µM (active)

Oc1ccc(/N=C/c2cc(Br)c(N3CCOCC3)o2)cc1
IC50 (Large T antigen): 21.7 µM (active) | IC50 [6]: 42 µM (active)

COc1ccc(Cl)cc1NC(=O)CN(C(=O)c1ccco1)C1CCCCC1
IC50 [1]: > 66 µM (inactive) | IC50 [2]: > 66 µM (inactive)

COc1ccc(/C=C2/SC(=O)N(CCNC(=O)C3COc4ccccc4O3)C2=O)cc1 (stereo unspecified)
EC50 [3]: > 260 µM (inactive)

NC(=Nc1ccccc1C(F)(F)F)Nc1nc(O)c2c(n1)CCC2
CC50 [7]: 46.9 µM (active) | EC50 [3]: > 260 µM (inactive)

Cc1ccc(-[n+]2c(-c3ccccc3)cn3c2CCC3)cc1
EC50 [4]: > 150 µM (inconclusive) | EC50 [5]: > 38 µM (not active) | AC50 (INS1): 2.83 µM (active)

Cc1c(NC(=S)NC(=O)c2cc3ccccc3o2)cccc1C(=O)O
IC50 [1]: > 66 µM (inactive) | IC50 [2]: > 66 µM (inactive)

O=Cc1ccc(OC(=O)c2cc(Cl)nc3ccccc23)cc1
IC50 [1]: > 66 µM (inactive) | IC50 [2]: > 66 µM (inactive)

O=C(C1=C(O)C(=O)N(Cc2cccnc2)C1c1cccc(O)c1)c1ccc2c(c1)OCCO2 (stereo unspecified)
EC50 [3]: > 260 µM (inactive)

O=C(COc1ccc2c(c1)CCC2)N1CCN(c2cccc(C(F)(F)F)c2)CC1
EC50 [4]: > 160 µM (inactive) | EC50 [5]: > 38 µM (not active)

O=C(C[n+]1ccccc1)NN=Cc1ccc(O)cc1
IC50 (Large T antigen): 11.3 µM (active) | IC50 [6]: 75 µM (active)

COc1ccc(NC(=S)c2ccc(N(C)C)cc2)cc1
EC50 (cells [8]): > 350 µM (not active) | EC50 (cells [9]): 145 µM (active) | EC50 [3]: > 260 µM (inactive)

CCNC(=O)c1sc(=S)n(-c2ccc(C)cc2)c1N
IC50 [1]: > 66 µM (inactive) | IC50 [2]: > 66 µM (inactive)

CN(C)c1cc(-c2ccc([N+](=O)[O-])cc2)oc(=O)c1Cl
EC50 [10]: 49.5 µM (active) | EC50 [11]: 165 µM (inconclusive)

Cn1nnc(NC(=S)NC(=O)c2ccc3ccccc3c2)n1
IC50 [1]: > 66 µM (inactive) | IC50 [2]: > 66 µM (inactive)
